Results as given in article PMC4836865 (Chemical Science, 2015).

Legend:
Assay type in all cases: biochemical
[1] = biological target: T1, MelBEc (Escherichia coli, UniProt P02921); assay: melibiose reversal of Trp to D2G FRET; details: solubilised in NDT-C11; displaces D2G
[2] = biological target: MelBSt (melibiose permease of Salmonella typhimurium) (Salmonella enterica, UniProt P30878); assay: melibiose reversal of Trp to D2G FRET; details: solubilised in DDM or NDT-C11; displaces D2G
[3] = biological target: T1, MelBEc; assay: Trp to dansyl FRET, reversed by melibiose; details: solubilised in NDT-C11; fluorescent ligand displaced by melibiose

T1 sequence (P02921 2-473): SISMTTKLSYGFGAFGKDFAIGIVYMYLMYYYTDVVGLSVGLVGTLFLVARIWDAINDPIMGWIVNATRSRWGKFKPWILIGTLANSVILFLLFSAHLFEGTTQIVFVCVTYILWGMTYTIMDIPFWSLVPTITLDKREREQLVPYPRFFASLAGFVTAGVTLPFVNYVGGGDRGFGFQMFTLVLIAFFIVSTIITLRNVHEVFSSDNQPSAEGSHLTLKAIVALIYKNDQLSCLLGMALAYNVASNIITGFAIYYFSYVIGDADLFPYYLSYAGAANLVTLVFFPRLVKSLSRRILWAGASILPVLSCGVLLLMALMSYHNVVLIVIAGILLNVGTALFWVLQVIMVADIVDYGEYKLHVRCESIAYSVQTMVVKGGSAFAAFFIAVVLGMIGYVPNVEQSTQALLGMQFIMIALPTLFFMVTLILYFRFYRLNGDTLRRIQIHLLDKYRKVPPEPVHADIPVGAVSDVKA
Chain of MelBSt (melibiose permease of Salmonella typhimurium) (P30878 whole entry): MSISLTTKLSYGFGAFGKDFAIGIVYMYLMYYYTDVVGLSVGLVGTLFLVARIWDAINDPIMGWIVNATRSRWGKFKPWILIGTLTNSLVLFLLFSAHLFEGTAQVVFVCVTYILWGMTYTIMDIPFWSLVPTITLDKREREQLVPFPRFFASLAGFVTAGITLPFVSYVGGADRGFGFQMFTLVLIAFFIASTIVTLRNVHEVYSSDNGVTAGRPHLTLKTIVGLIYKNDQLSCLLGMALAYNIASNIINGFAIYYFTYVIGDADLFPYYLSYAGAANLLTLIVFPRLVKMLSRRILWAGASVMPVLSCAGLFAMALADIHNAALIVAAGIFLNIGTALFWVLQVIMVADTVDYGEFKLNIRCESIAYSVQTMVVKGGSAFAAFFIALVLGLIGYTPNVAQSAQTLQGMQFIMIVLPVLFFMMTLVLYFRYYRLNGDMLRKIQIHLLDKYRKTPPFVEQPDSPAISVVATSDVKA

Row | Structure (SMILES) | melibiose reversal of Trp to D2G FRET [1] | melibiose reversal of Trp to D2G FRET [2] | Trp to dansyl FRET, reversed by melibiose [3]
1 | OC[C@H]1O[C@H](OC[C@H]2OC(O)[C@H](O)[C@@H](O)[C@@H]2O)[C@H](O)[C@@H](O)[C@H]1O (stereo partly drawn) [melibiose] | NDT-C11 is capable of maintaining the melibiose binding activity of both MelBSt and MelBEc | MelBSt solubilized in DDM or NDT-C11 was subjected to melibiose reversal of Trp | –
2 | CN(C)c1cccc2c(S(=O)(=O)NCCS[C@@H]3O[C@H](CO)[C@H](O)[C@H](O)[C@H]3O)cccc12 [2′-(N-dansyl)aminoalkyl-1-thio-β-D-galactopyranoside] | – | – | FRET response of the D^2G bound MelB to melibiose or water addition
